According to patent US20220162215A1, “COMPOSITIONS AND METHODS OF USING THE SAME FOR TREATMENT OF NEURODEGENERATIVE AND MITOCHONDRIAL DISEASE” (MITOKININ, INC., priority 2019, published 2022):

Key:
[1] = test system: α-synuclein; assay: Preformed α-syn amyloid fibril (PFF) mouse model; assay type: in vivo; conditions: oral dosing; for all analyzed species of α-synuclein: 50 mg/kg max
Method: Animals. C57BL6 mice were obtained from the Jackson Laboratories.
Injection material and stereotaxic injections. Purification of recombinant α-synuclein proteins and in vitro fibril assembly was performed as previously described (K. C. Luk et al., Intracerebral inoculation of pathological α-synuclein initiates a rapidly progressive neurodegenerative α-synucleinopathy in mice. J. Exp. Med. 209, 975 (2012)) from full-length wildtype mouse α-synuclein (5 mg/mL). Assembly reactions were agitated in an Eppendorf orbital mixer (1,000 rpm at 37° C.) and α-synuclein pre-formed fibrils (PFFs) harvested after 5 d. Preparations were diluted in sterile PBS and sonicated briefly with a hand-held probe sonicator (Fisher Scientific Model 120) prior to injection. Mice between 2 and 3 months of age were anesthetized with ketamine hydrochloride (100 mg/kg, i.p.) and xylazine (10 mg/kg, i.p.) and stereotaxically injected in one hemisphere of the striatum with PFFs (5 μg). Control animals received sterile PBS. To target the striatum, a single needle insertion (co-ordinates: +1.0 mm relative to Bregma, +2.0 mm from midline) into the right forebrain was used (+2.6 mm beneath the dura). Injections were performed using a motorized injector at a rate of 0.2 μL per min (2.5 μL total per site) with the needle in place for >5 min at each target. Animals were monitored regularly following recovery from surgery. Starting 7 days after surgery, a daily oral dose of EP-0035985 or vehicle control was administered, continuing for the duration of the study. The animals were sacrificed at 30 days post injection by overdose with isofluorane, and their brains removed following transcardial perfusion with PBS. Brains were sectioned into striatum and ventral midbrain sections, and immediately frozen and stored at −80° C. until used.
Biochemical analysis. Dissected brain regions of interest were extracted as in Yun, P. S., et al Nat Med. 2018 July; 24(7):931-938. Briefly, sections were homogenized in brain lysis buffer containing 10 mM Tris-HCl, pH 7.4, 150 mM NaCl, 5 mM EDTA, 0.5% IGEPAL® CA-630 (Nonidet P-40), 1× Halt™ Protease and Phosphatase Inhibitor Cocktail. 0.2 mL of buffer was used per tissue section. Samples were homogenized using a mortar pestle and then 0.3 mL brain lysis buffer was added before clearing at 300×g for 3 minutes at 4° C. Supernatant was then transferred to a new tube and cleared at 22,000×g for 20 min at 4° C. The supernatant should be transferred and the pellet washed with 0.3 mL brain lysis buffer before repeating the clearing step. Subsequent to this the pellet should be further homogenized (sonicating for 20 s at 20% amplitude on ice) in 0.2 mL per sample SDS-Brain lysis buffer containing 10 mM Tris-HCl, pH 7.4, 150 mM NaCl, 5 mM EDTA, 0.5% Nonidet P-40, 1% SDS, 0.5% sodium deoxycholate. Protein concentrations were determined using the BCA assay (Pierce) and samples (10 μg total protein) were separated on SDS-polyacrylamide gels (4-20% gradient) and transferred onto nitrocellulose membranes. Blots were blocked in 5% BSA in TBST and probed using various primary antibodies. Target antigens were detected using an Odyssey FC scanner (LiCor) following incubation with the appropriate infrared secondary antibodies.

[2] = target: T1, PINK1 (Homo sapiens, UniProt Q9BXM7); assay: Human Phospho-Ubiquitin (pS65) ub2 assay (western blot, in vitro PINK1 kinase assay); assay type: cell-based; conditions: in the presence of 0.5 μM FO; FIG. 14
T1 construct: for each cell type tested (HeLa-MKYP WT or PINK1^KO); endogenous in cells; host or cells: HeLa-MKYP (WT) / HeLa cells
Method: Briefly, HeLa MKYP cells were plated at 1,300,000 cells/plate in 10 cm plates in 10 mL of medium containing compound at various concentrations. Following 16 hrs of incubation, cells were treated with 0.5 uM FCCP/oligomycin for 2 hours, then harvested. Mitochondria were then isolated according to published protocols (Ordureau et al, 2014; https://doi.org/10.1016/j.molcel.2014.09.007). Equal amounts of samples were loaded on 26 well gradient gels, and a western blot analysis was performed using commercially available antibodies for various markers, including […].

[3] = test system: GDF15; assay: Cisplatin mouse model of mitochondrial dysfunction (GDF15 qPCR, kidney); assay type: in vivo, mice; conditions: oral dosing; i.p. cisplatin; FIG. 34
Description: Cisplatin is a chemotherapeutic agent reported in the literature to induce mitochondrial damage (see: Yang, Z., et al. “Cisplatin Preferentially Binds Mitochondrial DNA and Voltage-Dependent Anion Channel Protein in the Mitochondrial Membrane of Head and Neck Squamous Cell Carcinoma: Possible Role in Apoptosis.” Clinical Cancer Research 12, no. 19 (2006), 5817-5825). Growth and Differentiation Factor 15 (GDF15) is an established biomarker of mitochondrial disease and certain neurodegenerative diseases (see: Montero, R, et al. “GDF-15 Is Elevated in Children with Mitochondrial Diseases and Is Induced by Mitochondrial Dysfunction.” PLOS ONE 11, no. 2 (2016); Nohara, S, et al. “GDF-15, a mitochondrial disease biomarker, is associated with the severity of multiple sclerosis”, Journal of Neurological Sciences, Vol 405 (2019)). Briefly, mice approximately 10 weeks in age were challenged with a single intraperitoneal dose of cisplatin (10 mg/kg), then treated daily via oral gavage with either compound 35985 at various doses or vehicle control. On day 7, the animals were sacrificed. Kidneys were removed and homogenized. Following published methods, qPCR was performed on the kidney samples to determine expression levels of GDF15.

T1 sequence (Q9BXM7 78-581): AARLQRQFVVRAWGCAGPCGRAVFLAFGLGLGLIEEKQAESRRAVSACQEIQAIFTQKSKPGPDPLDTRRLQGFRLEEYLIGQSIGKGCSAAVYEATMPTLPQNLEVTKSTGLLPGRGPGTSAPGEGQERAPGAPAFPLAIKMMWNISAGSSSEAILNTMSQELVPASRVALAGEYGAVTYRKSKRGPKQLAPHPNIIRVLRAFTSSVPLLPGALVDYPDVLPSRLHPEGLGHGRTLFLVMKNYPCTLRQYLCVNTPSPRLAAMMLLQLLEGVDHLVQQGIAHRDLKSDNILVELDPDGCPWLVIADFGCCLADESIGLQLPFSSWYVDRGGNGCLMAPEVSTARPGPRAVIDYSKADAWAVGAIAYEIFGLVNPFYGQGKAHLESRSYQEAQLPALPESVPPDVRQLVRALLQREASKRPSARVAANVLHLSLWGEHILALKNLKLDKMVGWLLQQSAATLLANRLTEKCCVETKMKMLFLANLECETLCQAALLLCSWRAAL

## FC(F)(F)c1cc2c(NC3CCCc4ccccc43)ncnc2[nH]1 (centres unmarked) [Compound 15]
[1]; contralateral striatum, FIG. 30
  all analyzed species of α-synuclein: drives a decrease in all analyzed species of α-synuclein at 50 mg/kg max
[1]; ipsilateral striatum, FIG. 29
  all analyzed species of α-synuclein: drives a decrease in all analyzed species of α-synuclein at 50 mg/kg max
[1]; ipsilateral striatum, FIG. 26
  c-terminal truncation of α-synuclein (14 kDA): drives a decrease in c-terminal truncation of α-synuclein (14 kDA)
[1]; ipsilateral striatum, FIG. 27
  pS129 monomer of α-synuclein: drives a decrease in pS129 monomer of α-synuclein
[1]; ipsilateral striatum, FIG. 28
  total monomer of α-synuclein: drives a decrease in total monomer of α-synuclein
[1]; ventral midbrain, FIG. 31
  all analyzed species of α-synuclein: drives a decrease in all analyzed species of α-synuclein at 50 mg/kg max
[2]
  pS65 Ub signal: increases the pS65 Ub signal
[3]
  expression of mitochondrial disease marker GDF15: reduces expression of mitochondrial disease marker GDF15
